From patent US8329711B2, “Pyridone-substituted-dihydropyrazolopyrimidinone derivative” (MSD K.K., priority 2007, dated 2012)

Assays:
Wee1 kinase = biological target: T1, Wee1 kinase (Homo sapiens, UniProt P30291); assay: Wee1 kinase-inhibitory effect (33P-ATP filter assay with GST-tagged Wee1); type: biochemical; settings: purified GST-Wee1, Poly(Lys,Tyr) substrate, 10 μM ATP, 30° C. for 30 minutes; read-out: Weel-Inhibitory Effect (IC50)
T1 construct: made in house; host or cells: Sf9 insect cells (recombinant baculovirus)
Source text: Pharmacological Test 1 (Wee1 Kinase-Inhibitory Effect)
(1) Purification of Wee1 Kinase:
A cDNA of Wee1 kinase with glutathion-S-transferase (GST) fused at the amino terminal thereof was inserted into a baculovirus expression vector to construct a recombinant baculovirus, with which cells of an insect cell line Sf9 were infected for high expression therein. The infected cells were collected and solubilized, and then the GST-tagged Wee1 kinase protein was adsorbed by a glutathion column, and eluted from the column with glutathion, and the active fraction was desalted in a desalting column to give a purified enzyme.
(2) Determination of Wee1 Kinase Activity:
In determination of the Wee1 kinase activity, a synthetic peptide, Poly(Lys,Tyr) Hydrobromide (Lys:Tyr (4:1)) bought from Sigma was used as the substrate.
The amount of the reaction liquid was 21.1 μL; and the composition of the reaction buffer was 50 mM Tris-HCl buffer (pH 7.4)/10 mM magnesium chloride/1 mM dithiothreitol. The purified Wee1 kinase, 2.5 μg of the substrate peptide, 10 μM of non-labeled adenosine triphosphate (ATP) and 1 μCi of [γ-^33P]-labeled ATP (2500 Ci/mmol or more) were added to it, and reacted at 30° C. for 30 minutes. Next, 10 μL of 350 mM phosphate buffer was added to the reaction system to stop the reaction. The substrate peptide was adsorbed by a P81 paper filter 96-well plate, then washed a few times with 130 mM phosphate buffer, and its radioactivity was counted with a liquid scintillation counter. The [γ-^33P]-labeled ATP was bought from Amersham Bioscience.
To add a test compound to the reaction system, the compound was diluted with dimethyl sulfoxide (DMSO) to prepare a series of dilutions. 1.1 μL of each dilution was added to the reaction system. As a control, 1.1 μL of DMSO was added to the reaction system.

[1] = tested on: Cdc2 (Cdk1) tyrosine 15 phosphorylation in WiDr cells; assay: Cdc2 (Cdk1) tyrosine 15-phosphorylation-inhibitory effect in WiDr cells, gemcitabine-treated (ELISA); type: cell-based; settings: Homo sapiens, 100 nM gemcitabine 24 hours, then test compound with nocodazole 8 hours, read-out: Cdc2-Y15 Phosphorylation-Inhibitory Effect (WiDr, +gemcitabine) (EC50)
Source text: Pharmacological Test 2 (Method of Determining Drug Potency with Cells (Cdc2 (Cdk1) Tyrosine 15-Phosphorylation-Inhibitory Effect))
Fetal bovine serum (FBS) was gotten from Morgate; media RPMI1640 and DMEM were from Invitrogen; camptothecin was from Sigma; gemcitabine was from Nippon Eli Lilly; nocodazole and protease inhibitor cocktail were from Sigma; rabbit anti-Cdc2 antibody and mouse anti-Cdc2 antibody were from Santa Cruz Biotechnology; rabbit anti-tyrosine 15-phosphorylated Cdc2 antibody and horseradish peroxidase-labeled anti-mouse IgG antibody were from Cell Signaling Technology; sure blue reserve TMB peroxidase substrate was from Kirkegaard and Perry Laboratories.
Human non-small cell lung cancer cells (NCI-H1299) and human colon cancer cells (WiDr) were gotten from American Type Culture Collection (ATCC).
In the method of using WiDr cells, the cells were suspended in a medium of 10% FBS-added DMEM, and the cell suspension was applied to a 96-well Nunclondelta-processed plastic plate in an amount of 2000 cells/100 μL/well, in which the cells were incubated overnight in 5% CO2-95% air at 37° C. Gemcitabine was dissolved in PBS, and diluted with a medium of 10% FBS-added DMEM, and then this was applied to the plate on which the cells had been previously sowed, in an amount of 50 μL/well in such a manner that the final concentration of gemcitabine could be 100 nM. Then, the cells were incubated for 24 hours at 37° C. in 5% CO2-95% air. A test compound was stepwise diluted with DMSO, then diluted with 1200 nM nocodazole-containing, 10% FBS-added DMEM, and applied to the plate on which the […] cells had been sowed, in an amount of 50 μL/well. The cells were incubated for 8 hours at 37° C. in 5% CO2-95% air, then the culture was removed, and a cytolytic buffer was added to the plate in an amount of 100 μL/well, shaken at 4° C. for 2 hours, then frozen at −80° C., and thawed to give a cell solution. […] Cdc2 was determined through ELISA as follows: A rabbit anti-Cdc2 antibody solution, which had been diluted 200-fold with 50 mM carbonate-bicarbonate buffer (pH 9.6), was applied to a 96-well maxisorp plastic plate in an amount of 50 μL/well, and statically kept overnight at 4° C. so as to fix the antibody on the plate. […] Then, 1 M hydrochloric acid was added to it in an amount of 100 μL/well to stop the reaction, and this was analyzed through colorimetry. Tyrosine 15-phosphorylated Cdc2 was determined through ELISA as follows: A rabbit anti-tyrosine 15-phosphorylated Cdc2 antibody solution, which had been diluted 100-fold with 50 mM carbonate-bicarbonate buffer (pH 9.6), was applied to a 96-well maxisorp plastic plate in an amount of 50 μL/well, and statically kept overnight at 4° C. so as to fix the antibody on the plate. […]

T1 sequence (P30291 whole entry): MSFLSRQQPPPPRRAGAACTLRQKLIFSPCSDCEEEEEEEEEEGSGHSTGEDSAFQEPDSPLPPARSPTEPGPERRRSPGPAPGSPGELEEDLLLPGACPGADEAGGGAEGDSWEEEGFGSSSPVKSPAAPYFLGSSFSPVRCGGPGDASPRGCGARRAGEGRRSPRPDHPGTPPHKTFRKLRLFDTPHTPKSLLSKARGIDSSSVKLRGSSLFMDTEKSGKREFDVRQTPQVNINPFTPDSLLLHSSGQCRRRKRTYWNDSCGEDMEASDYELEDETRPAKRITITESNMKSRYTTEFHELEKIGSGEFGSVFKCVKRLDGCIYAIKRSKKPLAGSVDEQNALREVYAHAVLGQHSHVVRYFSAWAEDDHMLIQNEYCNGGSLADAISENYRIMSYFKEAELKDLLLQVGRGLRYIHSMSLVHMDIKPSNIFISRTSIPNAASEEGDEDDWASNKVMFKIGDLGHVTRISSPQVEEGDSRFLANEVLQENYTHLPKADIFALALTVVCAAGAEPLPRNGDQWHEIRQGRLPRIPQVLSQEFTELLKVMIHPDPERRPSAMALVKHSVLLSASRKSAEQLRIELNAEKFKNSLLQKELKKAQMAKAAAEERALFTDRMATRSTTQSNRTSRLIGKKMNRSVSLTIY

SMILES | IC50 (Wee1 kinase) [nM] | EC50 [1] [nM]
C=CCn1c(=O)c2cnc(Nc3ccc(N4CC[C@@H](N(C)C)C4)cc3)nc2n1-c1cccc(-n2ccccc2=O)n1 [Example 2, 6′-[2-allyl-6-({4-[(3R)-3-(dimethylamino)pyrrolidin-1-yl]phenyl}amino)-3-oxo-2,3-dihydro-1H-pyrazolo[3,4-d]pyrimidin-1-yl]-2H-1,2′-bipyridin-2-one] | 18 | 110
C=CCn1c(=O)c2cnc(Nc3ccc(N4CC[C@H](N(C)C)C4)cc3)nc2n1-c1cccc(-n2ccccc2=O)n1 [Example 3, 6′-[2-allyl-6-({4-[(3S)-3-(dimethylamino)pyrrolidin-1-yl]phenyl}amino)-3-oxo-2,3-dihydro-1H-pyrazolo[3,4-d]pyrimidin-1-yl]-2H-1,2′-bipyridin-2-one] | 16 | 
C=CCn1c(=O)c2cnc(Nc3ccc(N4CCN(C)CC4)cc3)nc2n1-c1cc(F)cc(-n2ccccc2=O)c1 [Example 4, 2-allyl-1-[3-fluoro-5-(2-oxopyridin-1(2H)-yl)phenyl]-6-{[4-(4-methylpiperazin-1-yl)phenyl]amino}-1,2-dihydro-3H-pyrazolo[3,4-d]pyrimidin-3-one] | 7.2 | 86
C=CCn1c(=O)c2cnc(Nc3ccc(C4CCN(C)CC4)cc3)nc2n1-c1cccc(-n2ccccc2=O)c1 [Example 8] | 24 | 170
C=CCn1c(=O)c2cnc(Nc3ccc(C4CCN(C)CC4)cc3)nc2n1-c1cccc(-n2ccccc2=O)n1 [Example 9, 6′-(2-Allyl-6-{[4-(1-methylpiperidin-4-yl)phenyl]amino}-3-oxo-2,3-dihydro-1H-pyrazolo[3,4-d]pyrimidin-1-yl)-2H-1,2′-bipyridin-2-one] | 11 | 
C=CCn1c(=O)c2cnc(Nc3ccc(N4CCN(C)CC4)c(C)c3)nc2n1-c1cccc(-n2ccccc2=O)n1 [Example 11, 6′-(2-Allyl-6-{[3-methyl-4-(4-methylpiperazin-1-yl)phenyl]amino}-3-oxo-2,3-dihydro-1H-pyrazolo[3,4-d]pyrimidin-1-yl)-2H-1,2′-bipyridin-2-one] | 10 | 92
C=CCn1c(=O)c2cnc(Nc3ccc(N4CC(F)(F)C4)cc3)nc2n1-c1cccc(-n2ccccc2=O)n1 [Example 17, 6′-(2-Allyl-6-{[4-(3,3-difluoroazetidin-1-yl)phenyl]amino}-3-oxo-2,3-dihydro-1H-pyrazolo[3,4-d]pyrimidin-1-yl)-2H-1,2′-bipyridin-2-one] | 6.9 | 
C=CCn1c(=O)c2cnc(Nc3cccc(C4CCN(C)CC4)c3)nc2n1-c1cccc(-n2ccccc2=O)n1 [Example 27, 6′-(2-Allyl-6-{[3-(1-methylpiperizin-4-yl)phenyl]amino}-3-oxo-2,3-dihydro-1H-pyrazolo[3,4-d]pyrimidin-1-yl)-2H-1,2′-bipyridin-2-one] | 6.9 | 
C=CCn1c(=O)c2cnc(Nc3ccc(OC)c(CO)c3)nc2n1-c1cccc(-n2ccccc2=O)n1 [Example 29, 6′-(2-Allyl-6-{[3-(hydroxymethyl)-4-methoxyphenyl]amino}-3-oxo-2,3-dihydro-1H-pyrazolo[3,4-d]pyrimidin-1-yl)-2H-1,2′-bipyridin-2-one] | 6.5 | 
CN1Cc2cc(Nc3ncc4c(=O)n(C)n(-c5cccc(-n6ccccc6=O)n5)c4n3)ccc2C2(CC2)C1 [Example 38, 6′-{2-Methyl-6-[(2′-methyl-2′,3′-dihydro-1′H-spiro[cyclopropane-1,4′-isoquinolin]-7′-yl)amino]-3-oxo-2,3-dihydro-1H-pyrazolo[3,4-d]pyrimidin-1-yl}-2H-1,2′-bipyridin-2-one] | 12.6 | 
CC(C)n1c(=O)c2cnc(Nc3ccc4c(c3)CN(C)CC43CC3)nc2n1-c1cccc(-n2ccccc2=O)n1 [Example 39, 6′-{2-Isopropyl-6-[(2′-methyl-2′,3′-dihydro-1′H-spiro[cyclopropane-1,4′-isoquinolin]-7′-yl)amino)-3-oxo-2,3-dihydro-1H-pyrazolo[3,4-d]pyrimidin-1-yl]-2H-1,2′-bipyridin-2-one] | 20.6 | 
C#CCn1c(=O)c2cnc(Nc3ccc4c(c3)CN(C)CC4)nc2n1-c1cccc(-n2ccccc2=O)n1 [Example 42, 6′-{6-[(2-Methyl-1,2,3,4-tetrahydroisoquinolin-7-yl)amino]-3-oxo-2-(2-propynyl)-2,3-dihydro-1H-pyrazolo[3,4-d]pyrimidin-1-yl}-2H-1,2′-bipyridin-2-one] | 4.4 | 
